Reference: ChEMBL document CHEMBL5291721, “A preclinical secondary pharmacology resource illuminates target-adverse drug reaction associations of marketed drugs” (Nat Commun, 2023)

Experiments:
[1] = target: 5-hydroxytryptamine receptor 2A (Homo sapiens, UniProt P28223); assay type: functional, cell-based
Histamine H1 receptor = Histamine H1 receptor (Homo sapiens, UniProt P35367)
[2] = target: Gamma-aminobutyric acid receptor subunit alpha-1 (Rattus norvegicus, UniProt P62813)
[3] = target: Gamma-aminobutyric acid receptor subunit alpha-1/alpha-2/beta-2/gamma-2 (Homo sapiens, UniProt P14867+P18507+P47869+P47870); assay type: protein-complex assay
[4] = target: T1, 5-hydroxytryptamine receptor 1A (Homo sapiens, UniProt P08908)
T1 sequence (P08908 whole entry): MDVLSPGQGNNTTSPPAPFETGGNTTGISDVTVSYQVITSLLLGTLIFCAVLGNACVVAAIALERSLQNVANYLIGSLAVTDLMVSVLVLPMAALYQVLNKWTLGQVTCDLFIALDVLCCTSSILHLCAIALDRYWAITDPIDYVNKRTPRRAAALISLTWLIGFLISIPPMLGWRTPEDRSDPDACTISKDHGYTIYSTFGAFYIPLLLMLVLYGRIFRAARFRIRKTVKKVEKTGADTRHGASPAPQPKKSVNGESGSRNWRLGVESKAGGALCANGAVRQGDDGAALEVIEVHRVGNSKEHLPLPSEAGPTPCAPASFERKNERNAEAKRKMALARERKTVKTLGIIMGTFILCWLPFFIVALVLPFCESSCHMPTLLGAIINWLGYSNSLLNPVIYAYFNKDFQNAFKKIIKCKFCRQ
Also: assay procedure not described here.

Chain of Histamine H1 receptor (P35367 whole entry): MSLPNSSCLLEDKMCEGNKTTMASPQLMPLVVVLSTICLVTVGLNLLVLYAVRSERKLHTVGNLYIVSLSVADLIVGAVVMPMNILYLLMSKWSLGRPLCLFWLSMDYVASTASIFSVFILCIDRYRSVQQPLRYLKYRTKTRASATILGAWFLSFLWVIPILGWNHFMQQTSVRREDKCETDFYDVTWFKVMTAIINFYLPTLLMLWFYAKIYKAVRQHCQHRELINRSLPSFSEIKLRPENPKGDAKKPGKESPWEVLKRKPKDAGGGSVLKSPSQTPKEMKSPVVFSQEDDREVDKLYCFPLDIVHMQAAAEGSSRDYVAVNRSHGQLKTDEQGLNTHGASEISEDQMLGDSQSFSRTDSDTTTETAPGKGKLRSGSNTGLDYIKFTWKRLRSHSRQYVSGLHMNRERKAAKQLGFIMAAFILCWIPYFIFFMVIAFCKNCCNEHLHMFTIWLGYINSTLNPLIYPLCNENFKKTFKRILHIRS
Chain of Gamma-aminobutyric acid receptor subunit alpha-1 (P62813 whole entry): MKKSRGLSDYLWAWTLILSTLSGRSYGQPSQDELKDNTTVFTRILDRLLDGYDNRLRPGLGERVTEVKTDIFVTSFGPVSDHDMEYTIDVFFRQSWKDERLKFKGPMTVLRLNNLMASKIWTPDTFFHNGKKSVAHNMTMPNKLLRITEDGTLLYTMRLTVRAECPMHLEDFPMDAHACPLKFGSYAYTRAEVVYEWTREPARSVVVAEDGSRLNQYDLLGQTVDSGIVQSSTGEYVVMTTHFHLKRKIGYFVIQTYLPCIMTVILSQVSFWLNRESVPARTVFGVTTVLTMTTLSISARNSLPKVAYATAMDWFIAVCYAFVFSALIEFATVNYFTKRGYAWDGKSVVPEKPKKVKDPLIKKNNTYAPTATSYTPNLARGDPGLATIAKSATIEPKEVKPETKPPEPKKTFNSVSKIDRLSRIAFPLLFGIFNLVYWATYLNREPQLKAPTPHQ
Chain of Gamma-aminobutyric acid receptor subunit alpha-1/alpha-2/beta-2/gamma-2 (P14867 whole entry): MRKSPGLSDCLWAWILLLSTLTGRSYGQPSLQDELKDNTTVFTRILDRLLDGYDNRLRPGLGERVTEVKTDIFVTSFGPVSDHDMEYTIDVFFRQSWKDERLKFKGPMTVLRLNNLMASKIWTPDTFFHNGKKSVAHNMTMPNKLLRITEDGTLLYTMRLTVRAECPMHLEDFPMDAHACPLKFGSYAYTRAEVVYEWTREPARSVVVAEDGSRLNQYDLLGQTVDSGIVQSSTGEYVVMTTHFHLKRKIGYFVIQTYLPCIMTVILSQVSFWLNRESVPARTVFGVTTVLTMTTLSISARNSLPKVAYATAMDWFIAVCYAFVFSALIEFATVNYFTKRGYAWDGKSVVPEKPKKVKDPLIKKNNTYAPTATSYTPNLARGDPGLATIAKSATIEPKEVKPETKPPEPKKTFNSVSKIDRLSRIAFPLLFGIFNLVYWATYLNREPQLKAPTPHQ
Chain of Gamma-aminobutyric acid receptor subunit alpha-1/alpha-2/beta-2/gamma-2 (P47870 whole entry): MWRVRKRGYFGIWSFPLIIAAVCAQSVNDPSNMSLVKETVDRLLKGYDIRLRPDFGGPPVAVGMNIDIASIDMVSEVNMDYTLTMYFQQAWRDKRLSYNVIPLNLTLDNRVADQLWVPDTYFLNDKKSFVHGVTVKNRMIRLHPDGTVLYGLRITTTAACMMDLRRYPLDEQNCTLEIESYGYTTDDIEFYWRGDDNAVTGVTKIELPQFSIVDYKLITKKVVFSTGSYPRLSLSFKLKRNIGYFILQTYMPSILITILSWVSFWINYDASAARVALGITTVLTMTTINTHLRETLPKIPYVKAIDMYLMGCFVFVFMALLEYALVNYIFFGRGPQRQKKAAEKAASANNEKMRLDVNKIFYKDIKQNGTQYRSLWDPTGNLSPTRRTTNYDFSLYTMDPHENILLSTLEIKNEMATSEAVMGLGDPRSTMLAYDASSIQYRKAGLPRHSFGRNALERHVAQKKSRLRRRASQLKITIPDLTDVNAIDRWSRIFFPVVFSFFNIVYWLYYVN
Chain of Gamma-aminobutyric acid receptor subunit alpha-1/alpha-2/beta-2/gamma-2 (P18507 whole entry): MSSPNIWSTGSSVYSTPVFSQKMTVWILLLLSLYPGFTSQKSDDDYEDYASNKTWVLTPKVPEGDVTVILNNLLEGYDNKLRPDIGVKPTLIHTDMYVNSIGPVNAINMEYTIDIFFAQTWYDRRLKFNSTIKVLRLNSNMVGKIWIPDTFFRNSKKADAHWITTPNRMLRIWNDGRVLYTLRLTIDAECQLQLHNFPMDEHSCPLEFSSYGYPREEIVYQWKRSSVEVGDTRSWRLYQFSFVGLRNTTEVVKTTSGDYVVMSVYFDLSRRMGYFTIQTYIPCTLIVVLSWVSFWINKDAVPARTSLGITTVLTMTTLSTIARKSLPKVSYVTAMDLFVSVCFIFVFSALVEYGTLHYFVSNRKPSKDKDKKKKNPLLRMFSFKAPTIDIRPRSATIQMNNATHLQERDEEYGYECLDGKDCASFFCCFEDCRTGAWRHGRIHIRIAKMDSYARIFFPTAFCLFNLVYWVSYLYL
Chain of Gamma-aminobutyric acid receptor subunit alpha-1/alpha-2/beta-2/gamma-2 (P47869 whole entry): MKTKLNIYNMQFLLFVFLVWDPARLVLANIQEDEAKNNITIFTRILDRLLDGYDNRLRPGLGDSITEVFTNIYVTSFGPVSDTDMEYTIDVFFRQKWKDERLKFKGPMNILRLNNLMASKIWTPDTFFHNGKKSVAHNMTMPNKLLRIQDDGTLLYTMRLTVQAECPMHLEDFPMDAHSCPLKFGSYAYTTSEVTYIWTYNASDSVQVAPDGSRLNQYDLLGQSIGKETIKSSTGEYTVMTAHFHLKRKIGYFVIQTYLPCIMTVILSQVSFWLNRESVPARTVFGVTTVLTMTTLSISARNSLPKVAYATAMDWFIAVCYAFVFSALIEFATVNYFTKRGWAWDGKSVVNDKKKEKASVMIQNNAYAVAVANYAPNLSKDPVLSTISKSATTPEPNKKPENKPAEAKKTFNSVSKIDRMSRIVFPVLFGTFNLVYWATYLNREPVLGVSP
Chain of 5-hydroxytryptamine receptor 2A (P28223 whole entry): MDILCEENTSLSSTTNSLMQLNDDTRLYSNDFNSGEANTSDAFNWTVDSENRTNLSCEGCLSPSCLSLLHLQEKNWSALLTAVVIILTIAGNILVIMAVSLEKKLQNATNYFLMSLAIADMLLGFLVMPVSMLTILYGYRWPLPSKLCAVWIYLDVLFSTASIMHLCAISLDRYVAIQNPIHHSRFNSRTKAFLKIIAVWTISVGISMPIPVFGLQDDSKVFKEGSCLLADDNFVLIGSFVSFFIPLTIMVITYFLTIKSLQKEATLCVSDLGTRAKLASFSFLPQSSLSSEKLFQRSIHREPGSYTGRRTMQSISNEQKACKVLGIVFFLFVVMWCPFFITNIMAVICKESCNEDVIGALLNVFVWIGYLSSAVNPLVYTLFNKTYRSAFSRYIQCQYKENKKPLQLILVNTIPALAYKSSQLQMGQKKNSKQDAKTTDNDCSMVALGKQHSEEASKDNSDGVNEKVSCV

Row | SMILES | AC50 [1] [µM] | AC50 (Histamine H1 receptor) [µM] | AC50 [2] [µM] | other results
1 | C[C@]12CC[C@@H]3c4ccc(O)cc4C[C@@H](CCCCCCCCC[S+]([O-])CCCC(F)(F)C(F)(F)F)[C@H]3[C@@H]1CC[C@@H]2O (stereo not given in full) [FULVESTRANT] | > 30 | > 30 | – | –
2 | C=CCNc1nc(NCC=C)nc(N2CCN(C(c3ccc(F)cc3)c3ccc(F)cc3)CC2)n1 [ALMITRINE] | > 30 | > 30 | – | –
3 | CCC(C)C(CC)C(N)=O (stereo not given) [VALNOCTAMIDE] | > 30 | > 30 | – | –
4 | CC(=O)O[C@]1(C(C)=O)CC[C@H]2[C@@H]3C=C(Cl)C4=CC(=O)CC[C@]4(C)[C@H]3CC[C@@]21C [CHLORMADINONE ACETATE] | – | – | > 30 | –
5 | C=CCSCC1Nc2cc(Cl)c(S(N)(=O)=O)cc2S(=O)(=O)N1 (stereo not given) [ALTHIAZIDE] | – | – | > 30 | –
6 | O=[N+]([O-])c1ccc(O)c2ncccc12 [NITROXOLINE] | > 30 | 4.9 | > 30 | –
7 | COc1cc(N2CCC(N3CCN(C)CC3)CC2)ccc1Nc1ncc(Cl)c(Nc2ccccc2P(C)(C)=O)n1 [BRIGATINIB] | – | – | > 30 | –
8 | CC1(C)S[C@@H]2[C@H](NC(=O)[C@H](N)c3ccccc3)C(=O)N2[C@H]1C(=O)OCOC(=O)[C@@H]1N2C(=O)C[C@H]2S(=O)(=O)C1(C)C [SULTAMICILLIN] | > 30 | > 30 | – | –
9 | CCCc1nc(C(C)(C)O)c(C(=O)O)n1Cc1ccc(-c2ccccc2-c2nnn[nH]2)cc1 [OLMESARTAN] | – | – | – | AC50 [3]: > 30 µM
10 | c1ccc2c(c1)CCc1ccccc1N2C1CN2CCC1CC2 (stereo not given) [QUINUPRAMINE] | – | – | – | AC50 [3]: > 30 µM
11 | C=C1CC[C@H](O)C/C1=C/C=C1\CCC[C@]2(C)[C@@H]([C@H](C)/C=C/[C@H](C)C(C)C)CC[C@@H]12 [ERGOCALCIFEROL] | – | – | > 30 | –
12 | Cc1cccc(N2CC(CO)OC2=O)c1 (stereo not given) [TOLOXATONE] | > 30 | > 30 | – | –
13 | Cc1cc(N)c2ccccc2[n+]1CCCCCCCCCC[n+]1c(C)cc(N)c2ccccc21 | – | – | 24.6 | –
14 | CCOC(=O)N1CSC[C@H]1C(=O)O [TELMESTEINE] | – | – | – | AC50 [3]: > 30 µM
15 | COC(=O)c1ccc(O)cc1 [METHYLPARABEN] | – | – | – | AC50 [3]: > 30 µM
16 | CC(C(=O)O)c1ccc(-c2ccccc2)c(F)c1 (stereo not given) [FLURBIPROFEN] | – | – | > 30 | –
17 | CC1=CCC(C(C)(C)O)CC1O (stereo not given) [SOBREROL] | – | – | – | AC50 [3]: > 30 µM
18 | NCC(CC(=O)O)c1ccccc1 (stereo not given) [PHENIBUT] | – | – | > 30 | –
19 | CN1C(=O)/C(=N\NC(N)=S)c2ccccc21 [METHISAZONE] | – | – | 12.3 | –
20 | CCOC(=O)[C@H](CCc1ccccc1)N[C@@H](C)C(=O)N(CC(=O)O)C1Cc2ccccc2C1 | – | – | > 30 | –
21 | CC[C@@H]([C@H](C)O)n1ncn(-c2ccc(N3CCN(c4ccc(OC[C@@H]5CO[C@@](Cn6cncn6)(c6ccc(F)cc6F)C5)cc4)CC3)cc2)c1=O [POSACONAZOLE] | – | > 30 | > 30 | –
22 | Cc1ncc(COP(=O)(O)O)c(C=O)c1O [PYRIDOXAL PHOSPHATE ANHYDROUS] | – | – | – | AC50 [3]: > 30 µM
23 | CC(C)[C@H](N)C(=O)OCC(CO)OCn1cnc2c(=O)nc(N)[nH]c21 (stereo not given in full) [VALGANCICLOVIR] | > 30 | > 30 | – | –
24 | CNCc1ccc(-c2[nH]c3cc(F)cc4c3c2CCNC4=O)cc1 [RUCAPARIB] | > 10 | > 10 | – | –
25 | Cc1ccccc1N1CCN(CCc2nnc3n2CCCC3)CC1 [DAPIPRAZOLE] | – | – | – | AC50 [3]: > 30 µM
26 | CC1OC2(CS1)CN1CCC2CC1 (stereo not given) [CEVIMELINE] | > 10 | > 30 | – | –
27 | C[C@H](Cc1cc2c(c(C(N)=O)c1)N(CCCO)CC2)NCCOc1ccccc1OCC(F)(F)F [SILODOSIN] | – | – | – | AC50 [3]: > 30 µM

Row | SMILES | AC50 [1] [µM] | AC50 (Histamine H1 receptor) [µM] | AC50 [2] [µM] | other results
28 | C#C[C@]1(OC(C)=O)CC[C@H]2[C@@H]3CCC4=C/C(=N/O)CC[C@@H]4[C@H]3CC[C@@]21CC [NORGESTIMATE] | > 30 | > 30 | – | –
29 | C[C@H](Cc1ccc(O)c(O)c1)[C@@H](C)Cc1ccc(O)c(O)c1 [MASOPROCOL] | > 30 | > 30 | – | –
30 | CCCN[C@H]1CCc2nc(N)sc2C1 [PRAMIPEXOLE] | – | > 10 | – | AC50 [4]: 10.5 µM
31 | COCC1=C(C(=O)O)N2C(=O)[C@@H](NC(=O)/C(=N\OC)c3csc(N)n3)[C@H]2SC1 [CEFPODOXIME] | > 30 | > 30 | – | –
32 | Clc1ccc(C(Cn2ccnc2)OCc2ccsc2Cl)c(Cl)c1 (stereo not given) [TIOCONAZOLE] | > 30 | > 30 | – | –
33 | CC(C)(C)NC[C@H](O)COc1cccc2c1CCCC2=O [LEVOBUNOLOL] | – | – | – | AC50 [3]: > 30 µM
34 | COc1cc2c(cc1OC)CC(=O)N(CCCN(C)C[C@H]1Cc3cc(OC)c(OC)cc31)CC2 [IVABRADINE] | – | – | > 30 | –
35 | Clc1ccc2c(N3CCN(CCCN4CCN(c5ccnc6cc(Cl)ccc56)CC4)CC3)ccnc2c1 [PIPERAQUINE] | > 30 | > 30 | – | –
36 | CC(=O)N[C@@H](CS)C(=O)O [ACETYLCYSTEINE] | > 30 | > 30 | – | –
37 | C[C@]12CCC(=O)C(O)=C1CC[C@@H]1[C@@H]2CC[C@]2(C)C(=O)CC[C@@H]12 [FORMESTANE] | > 30 | > 30 | – | –
38 | CC(N)Cc1ccc(O)cc1 (stereo not given) [HYDROXYAMPHETAMINE] | – | – | > 30 | –
39 | COc1ccc(CN(CCN(C)C)c2ccccn2)cc1 [PYRILAMINE] | – | – | > 30 | –
40 | CCC1(c2ccccc2)CCC(=O)NC1=O (stereo not given) [GLUTETHIMIDE] | > 30 | > 10 | – | –
41 | CCN(CCCc1ccccc1)CCCc1ccccc1 [ALVERINE] | – | – | – | AC50 [3]: > 30 µM
42 | CC(C)N(CCNC(=O)CN1CCCC1=O)C(C)C | – | – | – | AC50 [3]: > 30 µM
43 | Cc1cc(NC(=O)C2=C(O)c3ccccc3S(=O)(=O)N2C)no1 [ISOXICAM] | – | – | > 30 | –
44 | CC(C)(C)C(=O)OCC(=O)[C@H]1CC[C@H]2[C@@H]3CCC4=CC(=O)CC[C@]4(C)[C@H]3CC[C@]12C [DESOXYCORTICOSTERONE PIVALATE] | > 10 | > 10 | – | –
45 | C/N=C(\NC)NCc1ccccc1 [BETHANIDINE] | > 30 | > 30 | – | –
46 | CCN(CC)C(=S)S [DITIOCARB] | – | – | > 30 | –
47 | CCC(=O)O[C@H]1CC[C@H]2[C@@H]3CCC4=CC(=O)CC[C@]4(C)[C@H]3CC[C@]12C [TESTOSTERONE PROPIONATE] | > 30 | > 10 | – | –
48 | Cc1c(N(C)CS(=O)(=O)O)c(=O)n(-c2ccccc2)n1C [METAMIZOLE] | – | – | – | AC50 [3]: > 30 µM
49 | CCOC(=O)c1cncn1[C@H](C)c1ccccc1 [ETOMIDATE] | > 10 | > 10 | – | –
50 | NC(=O)OCC(O)COc1ccc(Cl)cc1 (stereo not given) [CHLORPHENESIN CARBAMATE] | – | – | > 30 | –
51 | CN(C)CCOC(c1ccccc1)c1ccc(Br)cc1 (stereo not given) [BROMODIPHENHYDRAMINE] | – | – | > 30 | –
52 | Nc1ncn([C@H]2C[C@H](O)[C@@H](CO)O2)c(=O)n1 [DECITABINE] | > 30 | > 30 | – | –
53 | CCC(C)C1(CC)C(=O)NC(=O)NC1=O (stereo not given) [BUTABARBITAL] | > 30 | > 30 | – | –
54 | CCC(=O)O[C@]1(C(=O)CCl)[C@@H](C)C[C@H]2[C@@H]3C[C@H](F)C4=CC(=O)C=C[C@]4(C)[C@@]3(F)[C@@H](O)C[C@@]21C [HALOBETASOL PROPIONATE] | – | – | – | AC50 [3]: > 30 µM
